Columns and labels:
[1] = system: VTEC strain of serotype O45:H2; test: Metabolic labeling of VTEC O45:H2 with KDO-alkyne, Alexa488-azide, fluorescence microscopy; type: cell-based, E. coli; settings: overnight culture
Source text: Metabolic labeling of VTEC was also investigated to determine if this labeling strategy could be applied to the detection of live pathogenic bacteria. […] Therefore, targeting LPS of bacteria with a KDO analogue can also be used to identify contamination by living pathogenic strains of E. coli.

BL21 E. coli [2] = test: Dual metabolic labeling (HPG and KDO-azide) of BL21 E. coli, fluorescence and bead capture; type: cell-based; settings: HPG and KDO-azide together
Protocol: FIG. 10: Dual metabolic label incorporation, fluorescence labeling and capture of live lab strain E. coli. […] The cells were first reacted with biotin-azide to biotinylate surface proteins, then reacted with Alexa488-alkyne to fluorescently label LPS molecules. Surface biotinylation was either fluorescently detected after incubation with Cy3-streptavidin (top panels), or bacteria were captured after incubation with streptavidin-coated magnetic beads (bottom panels). Fluorescence levels are adjusted above background detected for cells grown in the presence of KDO and methionine.
Beyond identification of living cells, this method has the potential to discriminate between gram positive and gram negative bacteria as functionalized KDO will only be incorporated into LPS of gram negative cells, whereas HPG should not discriminate between the two. This method may also be used to capture living bacteria via incorporation of HPG, and fluorescent identification of gram negative strains via incorporation of KDO-azide. […] Methionine biosynthesis was then inhibited and either methionine or HPG were added to the cultures and incubated for 16 hours. Cells were reacted with biotin-azide to label surface proteins containing HPG, then reacted with Alexa488-alkyne to fluorescently label LPS containing KDO-azide. […]

[3] = system: Listeria innocua strains HPB 34 and 118; test: Metabolic labeling of Listeria innocua with HPG, Alexa488-azide, fluorescence microscopy; type: cell-based; settings: HPG 100 μg/ml, HTM minimal medium, 16 h at 30° C.
Protocol: In addition to gram negative E. coli strains, gram positive Listeria strains were investigated to probe the diversity of bacteria susceptible to this labeling strategy. Two strains of Listeria innocua were cultured in HTM minimal medium containing the methionine biosynthesis inhibition amino acids, in the presence of methionine (100 μg/ml) or HPG (100 μg/ml) for 16 h at 30° C., then reacted with Alexa488-azide as described earlier.

L. innocua = test: Capture of HPG-labeled, biotin-azide reacted L. innocua on streptavidin-coated magnetic beads; type: cell-based, Listeria innocua; settings: biotin-azide 100 μM, M280 Dynabeads 1 hour
Source text: (§1) FIG. 6: Capture via unnatural amino acid metabolic labeling of live gram negative (E. coli) and gram positive (L. innocua) bacteria.
(§2) E. coli and L. innocua cells metabolically labeled by HPG were further investigated to determine if they could be captured on a surface via the incorporated amino acid analogue.

K12 E. coli = test: Immunocapture with anti-E. coli antibody beads and HPG metabolic labeling of K12 E. coli; type: cell-based; settings: 30 minutes in M9 media, anti-E. coli antibody beads, Alexa488-azide
Protocol: FIG. 11: Metabolic label incorporation, immunocapture and fluorescence identification of live K12 strain E. coli. […] M280 streptavidin-coated magnetic beads treated with PBS (“Untreated”) or PBS containing biotin-tagged Anti-E. coli antibody were then added to the culture for 1 hour before the beads were washed in PBS and reacted with Alexa488-azide to fluorescently label surface proteins. Fluorescence levels are adjusted above background detected for cells grown in the presence of methionine.
Metabolic labeling is compatible with strain-specific immunocapture using magnetic beads coated with antibodies directed to specific bacteria. This method has the potential to concentrate specific strains of bacteria from food or water samples, while simultaneously allowing bacteria to acquire the functionalized biomolecular precursor and incorporate it in target biomolecules. Captured bacteria are then identified as living or dead by a subsequent bioorthogonal reaction and detection by fluorescence microscopy. […] M280 magnetic beads treated with PBS or biotin-tagged anti-E. coli antibody were co-incubated with the E. coli. Bacteria/bead aggregates were washed in PBS, then reacted with Alexa488-azide to fluorescently identify living bacteria captured on the M280 magnetic beads.

[4] = system: verotoxin producing E. coli (VTEC) cells; type: cell-based
BL21 E. coli [5] = test: Capture of HPG-labeled, biotin-azide reacted E. coli on streptavidin-coated magnetic beads; type: cell-based; settings: biotin-azide 100 μM, M280 Dynabeads 1 hour
Source text: as §1, §2

| SMILES | incorporation into LPS molecules [1] | dual metabolic label incorporation (BL21 E. coli [2]) | fluorescence labeling after reaction with Alexa488-azide [3] | capture on streptavidin coated beads via incorporated HPG (L. innocua) | identification of captured bacteria as living by fluorescence (K12 E. coli) | contact time after which metabolic label incorporation is detected [4] | fluorescence labeling after reaction with Alexa488-azide [4] | capture on streptavidin coated beads via incorporated HPG (BL21 E. coli [5]) |
| --- | --- | --- | --- | --- | --- | --- | --- | --- |
| C#CCCC(=O)NC[C@@H](O)C1OC(O)(C(=O)O)C[C@@H](O)[C@H]1O (stereo partly drawn) [KDO-alkyne] | capable of incorporating KDO-alkyne into LPS molecules |  |  |  |  |  |  |  |
| [N-]=[N+]=NC[C@@H](O)C1OC(O)(C(=O)O)C[C@@H](O)[C@H]1O (stereo partly drawn) [KDO-azide] |  | capable of incorporating both |  |  |  |  |  |  |
| C#CCCC(N)C(=O)O (stereo not drawn) [HPG, homopropargylglycine] |  | capable of incorporating both | labeled efficiently | multiple E. coli and L. innocua cells bound to the streptavidin coated beads | identified as being alive | 30 min | fluorescently labeled | multiple E. coli and L. innocua cells bound to the streptavidin coated beads |

Reference: US10745735B2 (priority 2013, dated 2020)
